From patent US11371055B2, “Herbicide resistance genes” (CORTEVA AGRISCIENCE LLC, priority 2005, dated 2022) come the findings set out here.

Each structure is given as a SMILES string.

Test [1] deals with Segregating T2 AAD-12 (v1) plants (pDAB724.01.1.20). The experiment in a line: Foliar-applied auxinic herbicides on T2 Arabidopsis. The format is in vivo, Arabidopsis thaliana. As to conditions: Inactive DCP metabolite. On the procedure:
(§1) The ability of AAD-12 (v1) to provide resistance to other aryloxyalkanoate auxin herbicides in transgenic Arabidopsis was determined by foliar application of various substrates. T2 generation Arabidopsis seed was stratified, and sown into selection trays much like that of Arabidopsis (Example 6.4). A transformed-control line containing PAT and the insect resistance gene Cry1F was planted in a similar manner. Seedlings were transferred to individual 3-inch pots in the greenhouse. All plants were sprayed with the use of a track sprayer set at 187 L/ha. The plants were sprayed with a range of pyridyloxyacetate herbicides: 280-2240 g ae/ha triclopyr (Garlon 3A, Dow AgroSciences) and 280-2240 g ae/ha fluroxypyr (Starane, Dow AgroSciences); and the 2,4-D metabolite resulting from AAD-12 activity, 2,4-dichlorophenol (DCP, Sigma) (at a molar equivalent to 280-2240 g ac/ha of 2,4-D, technical grade DCP was used). All applications were formulated in water. Each treatment was replicated 3-4 times. Plants were evaluated at 3 and 14 days after treatment.

Test [2] has as its system Pat/Cry1f-Control Arabidopsis. Briefly: Foliar-applied auxinic herbicides on transformed control Arabidopsis. The format is in vivo, Arabidopsis thaliana. As to conditions: for Ave % Injury 14DAT: Inactive DCP metabolite. On the procedure: as §1
The target in test [3] is T1, AAD-12 (v2) (Delftia acidovorans, UniProt P83309).
T1 construct: made in house; host or cells: Pseudomonas fluorescens strain MB324 (construct pDAB739)
Briefly: Chloropyridinol detection assay (absorbance at 325 nm). The format is biochemical. The note with it: 6.8 μg AAD-12 (v2), 1 mM substrate; for Rate (mAU/min): 325 nm, background rate 1.4 mAU/min subtracted. The text has this:
AAD-12 action on potential substrates such as the herbicide triclopyr containing a substituted pyridine (rather than benzene rings) will release a pyridinol on cleavage of the aryloxyalkanoate bond. Pyridinols were not detected using the aminoantipyrine/ferricyanide phenol detection described in the preceding section. […] This was used to create a continuous microplate-based spectrophotometric assay.
All five pyridyloxyalkanoates were cleaved to release pyridinols by AAD-12 (v2). The rates for the oxypropionate substrates 116844 and 91767 were somewhat faster than those for the corresponding acetates (triclopyr and 93833 respectively) indicating a preference of AAD-12 (v2) for oxypropionate over oxyacetate side chains.

Test [4] concerns AAD-12 x AAD-1 F1 cross tobacco. Briefly: Auxinic herbicide cross tolerance of stacked tobacco, F1 cross. The format is in vivo, Nicotiana tabacum. The note with it: AAD-12 (v1) x AAD (v3) F1; 280 g ae/ha. As for the experimental part: (§2) Homozygous AAD-12 (v1) (pDAS1580) and AAD-1 (v3) (pDAB721) plants (see PCT/US2005/014737 for the latter) were both reciprocally crossed and F1 seed was collected. The F1 seed from two reciprocal crosses of each gene were stratified and treated 4 reps of each cross were treated under the same spray regimen as used for the other testing with one of the following treatments: 70, 140, 280 g ac/ha fluroxypyr (selective for the AAD-12 (v1) gene); 280, 560, 1120 g ae/ha R-dichloroprop (selective for the AAD-1 (v3) gene); or 560, 1120, 2240 g ae/ha 2,4-D DMA (to confirm 2,4-D tolerance). Homozygous T2 plants of each gene were also planted for use as controls. Plants were graded at 3 and 14 DAT.

Test [5] deals with AAD-1 (v3) (pDAB721) T2 tobacco plants. Briefly: Auxinic herbicide cross tolerance of stacked tobacco, AAD-1 T2. The format is in vivo, Nicotiana tabacum. As to conditions: 280 g ae/ha. As for the experimental part: as §2
Test [6] deals with AAD-12 (v1) (pDAS1580) T2 tobacco plants. The experiment in a line: Auxinic herbicide cross tolerance of stacked tobacco, AAD-12 T2. The format is in vivo, Nicotiana tabacum. As to conditions: 280 g ae/ha. As for the experimental part:
as §2

For test [7], the system named is wildtype tobacco. Briefly: Auxinic herbicide cross tolerance of stacked tobacco, wildtype. The note with it: KY160 wildtype control; 280 g ae/ha. The format is in vivo, Nicotiana tabacum. On the procedure: as §2
Test [8] has as its system Wildtype (Col-0) Arabidopsis. The experiment in a line: Glyphosate postemergence dose response, wildtype. The format is in vivo, Arabidopsis thaliana. The note with it: 14 DAT. As for the experimental part:
(§3) T1 Arabidopsis seed was produced, as previously described, containing the pDAB3759 plasmid (AAD-12 (v1)+EPSPS) which encodes a putative glyphosate resistance trait. T1 transformants were selected using AAD-12 (v1) as the selectable marker as described in example 7.6. T1 plants (individually transformed events) were recovered from the first selection attempt and transferred to three-inch pots in the greenhouse as previously described. Three different control Arabidopsis lines were also tested: wildtype Columbia-0, AAD-12 (v1)+PAT T4 homozygous lines (pDAB724-transformed), and PAT+Cry1F homozygous line (transformed control). The pDAB3759 and pDAB724 transformed plants were pre-selected at the seedling stage for 2,4-D tolerance. Four days after transplanting, plants were evenly divided for foliar treatment by track sprayer as previously described with 0, 26.25, 105, 420, or 1680 g ae/ha glyphosate (Glyphomax Plus, Dow AgroSciences) in water. All treatments were replicated 5 to 20 times. Plants were evaluated 7 and 14 days after treatment.

The test system of test [9] is AAD-12 v1 gene + EPSPS + HptII (pDAB3759) T1 Arabidopsis. Briefly: Glyphosate postemergence dose response, AAD-12 + EPSPS stack. The format is in vivo, Arabidopsis thaliana. As to conditions: 14 DAT. On the procedure: as §3
The subject of test [10] is PAT/Cry1F Arabidopsis. Briefly: Glyphosate postemergence dose response, PAT/Cry1F control. As to conditions: 14 DAT. The format is in vivo, Arabidopsis thaliana. As for the experimental part:
as §3

For test [11], the system named is pDAB724 T4 (PAT + AAD-12) Arabidopsis. Briefly: Glyphosate postemergence dose response, pDAB724 T4. The format is in vivo, Arabidopsis thaliana. The note with it: 14 DAT. As for the experimental part:
as §3

Setting [12] is: 280 g ae/ha (molar equivalent of 2,4-D) foliar.
The mark [13] stands for this setting: 560 g ae/ha (molar equivalent of 2,4-D) foliar.
The mark [14] stands for this setting: 1120 g ae/ha (molar equivalent of 2,4-D) foliar.
Where [15] appears, read: 2240 g ae/ha (molar equivalent of 2,4-D) foliar.
[16] abbreviates: 26.25 g ae/ha glyphosate postemergence.
Setting [17] is: 105 g ae/ha glyphosate postemergence.
[18] abbreviates: 420 g ae/ha glyphosate postemergence.
Where [19] appears, read: 1680 g ae/ha glyphosate postemergence.

T1 sequence (P83309 whole entry, looked up, natural form): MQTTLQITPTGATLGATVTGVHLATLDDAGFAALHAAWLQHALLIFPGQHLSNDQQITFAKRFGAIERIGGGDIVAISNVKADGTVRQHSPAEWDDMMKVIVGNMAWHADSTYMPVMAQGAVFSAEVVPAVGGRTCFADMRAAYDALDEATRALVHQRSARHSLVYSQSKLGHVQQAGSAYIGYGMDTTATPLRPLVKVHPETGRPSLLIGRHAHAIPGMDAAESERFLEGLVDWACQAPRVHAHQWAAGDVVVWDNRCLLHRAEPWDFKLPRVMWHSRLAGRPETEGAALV

`Oc1ccc(Cl)cc1Cl` [2,4-DCP, 2,4-dichlorophenol]: the “Ave % Injury 14DAT” value in [1] (setting [12]), in [1] (setting [13]), in [1] (setting [14]), in test [1] (setting [15]), in test [2] (setting [12]) and in test [2] (setting [13]) was 0% each time. Besides, the “Ave % Injury 14DAT” value in [2] (setting [14]) and in test [2] (setting [15]) was 0% throughout. The “effect on plants after foliar application” value in test [2] (molar equivalent to 280-2240 g ae/ha of 2,4-D) is “no effect”.

In the case of `CC(Oc1ncc(Cl)cc1Cl)C(=O)O` (stereo not shown) [compound 66357], in test [3], the “Rate relative to triclopyr” value turned out to be 2.3 and the “Rate (mAU/min)” value is recorded as 225 mAU/min.

Regarding `CC(Oc1nc(F)c(Cl)cc1Cl)C(=O)O` (stereo not shown) [compound 91767], in test [3], the “Rate relative to triclopyr” value is 0.8 and the “Rate (mAU/min)” value was found to be 190 mAU/min.

`O=C(O)COc1nc(F)c(Cl)cc1Cl` [compound 93833]: in test [3], the “Rate relative to triclopyr” value is on record as 0.5 and the “Rate (mAU/min)” value was 118 mAU/min.

`CC(Oc1nc(Cl)c(Cl)cc1Cl)C(=O)O` (stereo not shown) [compound 116844]: in [3], the “Rate relative to triclopyr” value was 1.4 and the “Rate (mAU/min)” value is reported as 257 mAU/min.

`Nc1c(Cl)c(F)nc(OCC(=O)O)c1Cl` [fluroxypy]: the “Average % injury 14 DAT” value in test [4] was 3%; in test [5], 75%; in test [6], 3%; in test [7], 75%.

For the compound `O=C(O)CNCP(=O)(O)O` [glyphosate], the “% Injury 20-40% (number of individuals)” value is listed as 0 in [8] (setting [16]); 0 in [8] (setting [17]); 0 in test [8] (setting [18]); 0 in test [8] (setting [19]); 2 in test [9] (setting [16]); 1 in test [9] (setting [17]). Besides, the “% Injury 20-40% (number of individuals)” value in test [9] (setting [18]) turned out to be 6; in test [9] (setting [19]), 0; in test [10] (setting [16]) it was 0; in test [10] (setting [17]), 0; in test [10] (setting [18]) it was 0; in test [10] (setting [19]) it was 0. The “% Injury 20-40% (number of individuals)” value in test [11] (setting [16]), in test [11] (setting [17]), in test [11] (setting [18]) and in test [11] (setting [19]) was 0 throughout. The “% Injury <20% (number of individuals)” value in [8] (setting [16]) was determined as 0; in [8] (setting [17]), 0; in test [8] (setting [18]), 0; in test [8] (setting [19]), 0; in [9] (setting [16]), 13; in test [9] (setting [17]), 10. Besides, the “% Injury <20% (number of individuals)” value in test [9] (setting [18]) came out at 5; in test [9] (setting [19]), 0; in test [10] (setting [16]), 0; in test [10] (setting [17]) it was 0; in test [10] (setting [18]) it was 0; in test [10] (setting [19]) it was 0. Besides, the “% Injury <20% (number of individuals)” value in [11] (setting [16]), in test [11] (setting [17]), in test [11] (setting [18]) and in [11] (setting [19]) was 0 in each case. The “% Injury >40% (number of individuals)” value is on record as 5 in [8] (setting [16]); 5 in test [8] (setting [17]); 5 in test [8] (setting [18]); 5 in [8] (setting [19]); 1 in test [9] (setting [16]); 5 in test [9] (setting [17]). Moreover, the “% Injury >40% (number of individuals)” value in test [9] (setting [18]) amounted to 5; in [9] (setting [19]), 16; in [10] (setting [16]) it was 5; in test [10] (setting [17]) it was 5; in [10] (setting [18]), 5; in test [10] (setting [19]), 5. Besides, the “% Injury >40% (number of individuals)” value in test [11] (setting [16]), in test [11] (setting [17]), in test [11] (setting [18]) and in [11] (setting [19]) was 5 in each case. In addition, the “% Injury Ave” value is on record as 75% in test [8] (setting [16]); 100% in [8] (setting [17]); 100% in test [8] (setting [18]); 100% in [8] (setting [19]); 11% in test [9] (setting [16]); 34% in test [9] (setting [17]). The “% Injury Ave” value in test [9] (setting [18]) was found to be 44%; in test [9] (setting [19]), 85%; in [10] (setting [16]), 67%; in test [10] (setting [17]) it was 100%; in test [10] (setting [18]), 100%; in [10] (setting [19]), 100%. Further, the “% Injury Ave” value is 66% in test [11] (setting [16]), 100% in test [11] (setting [17]), 100% in [11] (setting [18]) and 100% in test [11] (setting [19]).
